Measurements as given in the NIST ThermoML archive (doi:10.1007/s10765-009-0593-3).
± gives the expanded uncertainty stated by the source.

Assay: xn = mol fraction of the nth substance listed
Details: 101 kPa, Liquid; for speed of sound: Pulse-echo method

CCCOCC(C)OCC(C)O (stereo not given) [1-(1-methyl-2-propoxyethoxy)-2-propanol] + CCCCNCCCC
Details | mass density, 288.15 K [kg/m3] | mass density, 293.15 K [kg/m3] | mass density, 298.15 K [kg/m3] | mass density, 303.15 K [kg/m3] | mass density, 308.15 K [kg/m3] | speed of sound, 288.15 K [m/s] | speed of sound, 293.15 K [m/s] | speed of sound, 298.15 K [m/s] | speed of sound, 303.15 K [m/s] | speed of sound, 308.15 K [m/s]
x1 = 0.123 | 792.458 ± 0.48 | 788.243 ± 0.49 | 783.999 ± 0.49 | 779.716 ± 0.5 | 775.539 ± 0.51 | 1291.2 ± 0.83 | 1271.6 ± 0.82 | 1252 ± 0.82 | 1232.1 ± 0.81 | 1212.2 ± 0.8
x1 = 0.1582 | 798.993 ± 0.47 | 794.736 ± 0.48 | 790.406 ± 0.48 | 786.126 ± 0.49 | 781.949 ± 0.5 | 1293.2 ± 0.83 | 1273.2 ± 0.82 | 1253.7 ± 0.82 | 1233.9 ± 0.81 | 1214 ± 0.8
x1 = 0.1913 | 804.954 ± 0.46 | 800.654 ± 0.47 | 796.281 ± 0.47 | 791.94 ± 0.48 | 787.756 ± 0.49 | 1294.9 ± 0.83 | 1274.7 ± 0.82 | 1255.1 ± 0.82 | 1235.5 ± 0.81 | 1215.5 ± 0.81
x1 = 0.2541 | 815.956 ± 0.45 | 811.61 ± 0.45 | 807.16 ± 0.46 | 802.761 ± 0.47 | 798.492 ± 0.47 | 1297.6 ± 0.83 | 1277.1 ± 0.82 | 1257.5 ± 0.82 | 1238.1 ± 0.81 | 1218.1 ± 0.81
x1 = 0.3195 | 827.1 ± 0.43 | 822.71 ± 0.44 | 818.293 ± 0.44 | 813.903 ± 0.45 | 809.461 ± 0.46 | 1299.8 ± 0.83 | 1279.3 ± 0.82 | 1259.6 ± 0.82 | 1240.4 ± 0.81 | 1220.4 ± 0.81
x1 = 0.3623 | 834.198 ± 0.42 | 829.803 ± 0.43 | 825.41 ± 0.43 | 821.074 ± 0.44 | 816.52 ± 0.45 | 1300.9 ± 0.83 | 1280.5 ± 0.82 | 1260.8 ± 0.82 | 1241.7 ± 0.81 | 1221.7 ± 0.81
x1 = 0.4155 | 842.79 ± 0.41 | 838.381 ± 0.41 | 834.053 ± 0.42 | 829.782 ± 0.43 | 825.107 ± 0.43 | 1302 ± 0.83 | 1281.8 ± 0.83 | 1262 ± 0.82 | 1243 ± 0.81 | 1223.1 ± 0.81
x1 = 0.4543 | 848.877 ± 0.4 | 844.447 ± 0.4 | 840.151 ± 0.41 | 835.948 ± 0.42 | 831.19 ± 0.42 | 1302.6 ± 0.83 | 1282.7 ± 0.83 | 1262.9 ± 0.82 | 1243.9 ± 0.81 | 1223.9 ± 0.81
x1 = 0.4974 | 855.422 ± 0.39 | 850.98 ± 0.39 | 846.721 ± 0.4 | 842.533 ± 0.41 | 837.752 ± 0.41 | 1303.2 ± 0.83 | 1283.5 ± 0.83 | 1263.7 ± 0.82 | 1244.7 ± 0.81 | 1224.7 ± 0.81
x1 = 0.5491 | 863.031 ± 0.38 | 858.573 ± 0.38 | 854.308 ± 0.39 | 850.092 ± 0.4 | 845.325 ± 0.4 | 1303.6 ± 0.83 | 1284.3 ± 0.83 | 1264.5 ± 0.82 | 1245.6 ± 0.81 | 1225.6 ± 0.81
x1 = 0.6027 | 870.648 ± 0.36 | 866.201 ± 0.37 | 861.902 ± 0.38 | 857.606 ± 0.38 | 852.894 ± 0.39 | 1304 ± 0.83 | 1285.1 ± 0.83 | 1265.2 ± 0.82 | 1246.4 ± 0.81 | 1226.4 ± 0.81
x1 = 0.6687 | 879.855 ± 0.35 | 875.389 ± 0.36 | 871.011 ± 0.36 | 866.586 ± 0.37 | 861.99 ± 0.38 | 1304.3 ± 0.83 | 1285.8 ± 0.83 | 1266 ± 0.82 | 1247.1 ± 0.81 | 1227.2 ± 0.81
x1 = 0.6962 | 883.669 ± 0.35 | 879.204 ± 0.35 | 874.806 ± 0.36 | 870.321 ± 0.36 | 865.762 ± 0.37 | 1304.4 ± 0.83 | 1286 ± 0.83 | 1266.3 ± 0.82 | 1247.4 ± 0.81 | 1227.5 ± 0.81
x1 = 0.7504 | 891.256 ± 0.34 | 886.786 ± 0.34 | 882.325 ± 0.35 | 877.785 ± 0.35 | 873.301 ± 0.36 | 1304.6 ± 0.83 | 1286.4 ± 0.83 | 1266.8 ± 0.82 | 1248 ± 0.81 | 1228 ± 0.81
x1 = 0.7997 | 898.225 ± 0.32 | 893.775 ± 0.33 | 889.311 ± 0.34 | 884.771 ± 0.34 | 880.284 ± 0.35 | 1304.8 ± 0.83 | 1286.7 ± 0.83 | 1267.3 ± 0.82 | 1248.4 ± 0.81 | 1228.5 ± 0.81
x1 = 0.8657 | 907.649 ± 0.31 | 903.208 ± 0.32 | 898.805 ± 0.32 | 894.377 ± 0.33 | 889.838 ± 0.34 | 1305.3 ± 0.83 | 1287 ± 0.83 | 1267.9 ± 0.82 | 1249 ± 0.81 | 1229.1 ± 0.81
x1 = 0.8963 | 911.923 ± 0.3 | 907.504 ± 0.31 | 903.128 ± 0.32 | 898.789 ± 0.32 | 894.205 ± 0.33 | 1305.5 ± 0.83 | 1287.2 ± 0.83 | 1268.2 ± 0.82 | 1249.3 ± 0.81 | 1229.4 ± 0.81
x1 = 0.9589 | 920.017 ± 0.29 | 915.65 ± 0.3 | 911.3 ± 0.3 | 907.024 ± 0.31 | 902.428 ± 0.32 | 1306.3 ± 0.83 | 1287.4 ± 0.83 | 1268.8 ± 0.82 | 1250 ± 0.82 | 1230 ± 0.81
